Where two headings read alike, the source gives them in different places. Where only a bound is given, the exact number is not on record here.

In one series the target is NET (Rattus norvegicus (Rat), UniProt Q9WTR4). The series can be described thus: Norepinephrine Transporter Binding Assay ([3H]Nisoxetine, rat frontal cortex membranes). On the procedure: Binding affinities of all compounds were evaluated at the DAT, SERT, and NET in rat brain membranes using previously described methods:
Norepinephrine Transporter Binding Assay. Brains from male Sprague-Dawley rats weighing 200-225 g (Taconic Labs, Germantown, N.Y.) were removed, frontal cortex dissected and rapidly frozen. Membranes were prepared by homogenizing tissues in 20 volumes (w/v) of 50 mM Tris containing 120 mM NaCl and 5 mM KCl, (pH 7.4 at 25° C.), using a Brinkman Polytron and centrifuged at 50,000×g for 10 min at 4° C. The resulting pellet was resuspended in buffer, recentrifuged and resuspended in buffer to a concentration of 80 mg/mL. Ligand binding experiments were conducted in assay tubes containing 0.5 mL buffer for 60 min at 0-4° C. […] Nonspecific binding was determined using 1 mM desipramine. Incubations were terminated by rapid filtration through Whatman GF/B filters, presoaked in 0.05% polyethylenimine, using a Brandel R48 filtering manifold (Brandel Instruments Gaithersburg, Md.). The filters were washed twice with 3 mL cold buffer and transferred to scintillation vials. Beckman Ready Value (3.0 mL) was added and the vials were counted using a Beckman 6000 liquid scintillation counter (Beckman Coulter Instruments, Fullerton, Calif.). […] All compounds were tested as racemic mixtures.

Series [1] is described as follows: Brain concentrations in mice. Particulars: mouse brain; for IV brain Conc. ng/g ± SD: 10 mg/kg IV; for PO brain Conc. ng/g ± SD: 10 mg/kg PO. The method, then: Plasma was harvested from blood by centrifugation. Additionally at two selected time points (i.e. 30 min and 2 h) brains were collected following both oral and IV dosing. Samples were extracted from plasma by a single one-step protein precipitation method (as described in bioanalysis section below). For brain tissue, whole brains were weighed and homogenized in two times the volume of acetonitrile, followed by vortexing and centrifugation. Once extracted, the samples were analyzed via LC/MS/MS (as described in bioanalysis section below). Non-compartmental-analysis module in WinNonlin™ (version 5.3) was used to assess pharmacokinetic parameters including maximal concentration (Cmax), time to Cmax (Tmax), area under the curve (AUClast), area extrapolated to infinity (AUCO-∞), terminal disposition rate constant (ke), and terminal half-life (t½).
Briefly, plasma samples were thawed on ice prior to extraction. Samples (50 μL) were extracted in 300 μL acetonitrile containing 1000 nM losartan as internal standard. For brain, 50 μL of the supernatant from homogenized tissue was extracted with 100 μL acetonitrile containing 1000 nM losartan as internal standard. Extracts were centrifuged at 16000×g at 4° C. for 10 minutes. Supernatants were transferred to a new siliconized tube and dried under N2 at 45° C. for 30 min. Samples were reconstituted with 100 μL of 30% acetonitrile, vortexed and centrifuged. Supernatants (95 μL) were transferred to a 250 μL polypropylene autosampler vials sealed with a Teflon cap and a volume of 10 μL was injected onto the ultra-performance liquid chromatography (UPLC) instrument for quantitative analysis using a temperature-controlled autosampler operating at 10° C.
The instrument was controlled by the Xcalibur software 2.3 (Thermo Scientific). Samples were introduced to the interface through Turbo Ion Spray with the temperature setting at 350° C.
Chromatographic analysis was performed using an Accela™ ultra high-performance system consisting of an analytical pump, and an autosampler coupled with TSQ Vantage mass spectrometer (Thermo Fisher Scientific Inc., Waltham Mass.).

Series [2] is described as follows: Phase II glucuronidation stability in mouse liver microsomes (UDPGA). It is filed as in vitro ADME. On the procedure:
Phase I and phase II metabolic stability assay for was conducted in mouse liver microsomes. For phase I metabolism, the reaction was carried out with 100 mM potassium phosphate buffer, pH 7.4, in the presence of NADPH regenerating system (1.3 mM NADPH, 3.3 mM glucose 6-phosphate, 3.3 mM MgCl2, 0.4 U/mL glucose-6-phosphate dehydrogenase, 50 μM sodium citrate). Reactions in duplicate were initiated by addition of the liver microsomes to the incubation mixture (compound final concentration was 10 μM; 0.5 mg/mL microsomes). For phase II glucuronidation reaction compound was added to TRIS-HCl buffer (50 mM, pH 7.5) with microsomes (0.5 mg/mL), along with MgCl2 (8 mM), and alamethicin (25 μg/mL) and pre-incubated at 37° C. The reaction was initiated (in duplicate) with UDPGA at a final concentration of 2 mM. Negative controls in the absence NADPH and UDPGA were carried for both phase I and phase II metabolism respectively, to determine the specific cofactor free degradation. […] Compound disappearance was monitored over time using a liquid chromatography and tandem mass spectrometry (LC/MS/MS) method.
Compounds were separated on an Agilent 1290 UPLC system with a c18 column using a gradient run of 55:45-5:95 water:acetonitrile over 3.2 minutes and detected on an Agilent 6520 QTOF mass spectrometer.
For orientation: Liver microsomes are a subcellular fraction often used to study metabolism.

For the next series, the target named is DAT (Rattus norvegicus (Rat), UniProt P23977). Nature of the series: Dopamine Transporter Binding Assay ([3H]WIN 35428, rat striatal membranes).
Sequence of DAT (P23977 whole entry): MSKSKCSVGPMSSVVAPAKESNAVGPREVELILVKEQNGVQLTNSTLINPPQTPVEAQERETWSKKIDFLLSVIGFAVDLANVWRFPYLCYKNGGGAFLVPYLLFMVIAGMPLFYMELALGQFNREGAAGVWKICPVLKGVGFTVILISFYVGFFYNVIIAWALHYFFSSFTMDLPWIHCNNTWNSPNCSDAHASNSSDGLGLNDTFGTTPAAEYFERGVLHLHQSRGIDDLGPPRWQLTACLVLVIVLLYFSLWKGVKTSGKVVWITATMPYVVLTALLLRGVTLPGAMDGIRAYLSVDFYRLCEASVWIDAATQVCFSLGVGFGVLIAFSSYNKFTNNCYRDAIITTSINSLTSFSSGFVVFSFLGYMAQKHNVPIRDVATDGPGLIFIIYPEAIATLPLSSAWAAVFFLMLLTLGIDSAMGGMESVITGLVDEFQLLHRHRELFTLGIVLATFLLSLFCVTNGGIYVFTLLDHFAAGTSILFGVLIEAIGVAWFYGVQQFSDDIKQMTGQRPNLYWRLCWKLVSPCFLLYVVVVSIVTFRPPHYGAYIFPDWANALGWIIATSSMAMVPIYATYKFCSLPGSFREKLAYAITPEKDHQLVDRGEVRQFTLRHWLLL
A further series addresses human DAT wild type (Homo sapiens (Human), UniProt Q01959). Nature of the series: [3H]DA uptake inhibition in intact COS7 cells, hDAT WT. It is filed as cell-based. To be noted: [3H]DA uptake inhibition potency, read-out: hDAT WT Ki [S.E. interval].
In the next series the target is human SERT T497A mutant (Homo sapiens (Human), UniProt P31645, T497A). It is filed as cell-based. To be noted: for Ki: read-out: hSERT T497A Ki [S.E. interval]. The text has this:
(§1) Molecular Pharmacology Site-directed mutagenesis: Synthetic cDNA encoding the human DAT (synDAT) were subcloned into pcDNA3 (Invitrogen, Carlsbad, Calif.). cDNA encoding the human SERT (hSERT) was cloned into the pUbilz expression vector. Mutations herein were generated by the QuickChange method (adapted from Stratagene, La Jolla, Calif.) and confirmed by restriction enzyme mapping and DNA sequencing. Positive clones were amplified by transformation into XL1 blue competent cells (Stratagene) and positive colony picked and grown in LB media over night at 37° C. in an orbital incubator (Infors) @ 200 rpm. Plasmids were harvested using the maxi prep kit provided by Qiagen according to the manufacturer's manual.
(§2) Uptake assays were performed essentially as previously described to Cha, J. H.; Zou, M. F.; Adkins, E. M.; Rasmussen, S. G.; Loland, C. J.; Schoenenberger, B.; Gether, U.; Newman, A. H. Rhodamine-Labeled 2beta-Carbomethoxy-3beta-(3,4-Dichlorophenyl)Tropane Analogues as High-Affinity Fluorescent Probes for the Dopamine Transporter. […] Transiently transfected COS-7 cells were plated in 12-well (3*10^5 cells/well) or 24-well dishes (10^5 cells/well) coated with poly-ornithine to achieve an uptake level of no more than 10% of total added radioligand. The uptake assays were carried out 2 days after transfection. Prior to the experiment, the cells were washed once in 500 μl of uptake buffer buffer (25 mM 4-(2-hydroxyethyl)-1-piperazineethanesulfonic acid (HEPES), 130 mM NaCl, 5.4 mM KCl, 1.2 mM CaCl2, 1.2 mM MgSO4, 1 mM L-ascorbic acid, 5 mM D-glucose, and 1 μM of the catechol-O-methyltransferase inhibitor Ro 41-0960 (Sigma), pH 7.4) at room temperature (RT). […] All samples were transferred to 24-well counting plates and 500 μL (or 600 μL) of Opti-phase Hi Safe 3 scintillation fluid (Perkin Elmer) was added followed by counting of the plates in a Wallac Tri-Lux β-scintillation counter (Perkin Elmer). Nonspecific uptake was determined in the presence of 5 μM paroxetine for hSERT and 50 μM nomifensine for hDAT expressing cells. All determinations were performed in triplicate.

In another series the target is human SERT wild type (Homo sapiens (Human), UniProt P31645). It is filed as cell-based. Particulars: for Ki: read-out: hSERT WT Ki [S.E. interval].
From the text: as §1, §2

The target in the next series is human DAT A480T mutant (Homo sapiens (Human), UniProt Q01959, A480T). The series can be described thus: [3H]DA uptake inhibition in intact COS7 cells, hDAT A480T. To be noted: for Ki: read-out: hDAT A480T Ki [S.E. interval], [3H]DA uptake inhibition potency; for affinity at DAT A480T compared to DAT WT: uptake inhibition.
Sequence of human DAT A480T mutant (Q01959 whole entry A480T): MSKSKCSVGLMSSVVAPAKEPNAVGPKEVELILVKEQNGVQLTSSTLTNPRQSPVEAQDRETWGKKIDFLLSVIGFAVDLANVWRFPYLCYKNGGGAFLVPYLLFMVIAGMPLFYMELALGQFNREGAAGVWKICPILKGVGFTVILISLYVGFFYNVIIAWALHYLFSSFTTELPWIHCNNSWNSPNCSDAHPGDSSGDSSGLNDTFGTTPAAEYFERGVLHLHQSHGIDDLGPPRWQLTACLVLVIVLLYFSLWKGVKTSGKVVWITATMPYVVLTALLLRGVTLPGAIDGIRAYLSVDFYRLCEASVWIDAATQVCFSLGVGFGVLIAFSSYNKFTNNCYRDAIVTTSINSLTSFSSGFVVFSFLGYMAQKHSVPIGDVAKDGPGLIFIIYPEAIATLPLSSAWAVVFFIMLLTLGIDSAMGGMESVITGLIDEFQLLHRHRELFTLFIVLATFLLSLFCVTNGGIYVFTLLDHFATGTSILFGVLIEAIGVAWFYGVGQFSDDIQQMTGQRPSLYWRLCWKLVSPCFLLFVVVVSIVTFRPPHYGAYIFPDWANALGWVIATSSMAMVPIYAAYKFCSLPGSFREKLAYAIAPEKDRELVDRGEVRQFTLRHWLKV
The target in a further series is SERT (Rattus norvegicus (Rat), UniProt P31652). To be noted: 2i v. 2g (Table 1); 4c v. 4a (Table 2).
Sequence of SERT (P31652 whole entry): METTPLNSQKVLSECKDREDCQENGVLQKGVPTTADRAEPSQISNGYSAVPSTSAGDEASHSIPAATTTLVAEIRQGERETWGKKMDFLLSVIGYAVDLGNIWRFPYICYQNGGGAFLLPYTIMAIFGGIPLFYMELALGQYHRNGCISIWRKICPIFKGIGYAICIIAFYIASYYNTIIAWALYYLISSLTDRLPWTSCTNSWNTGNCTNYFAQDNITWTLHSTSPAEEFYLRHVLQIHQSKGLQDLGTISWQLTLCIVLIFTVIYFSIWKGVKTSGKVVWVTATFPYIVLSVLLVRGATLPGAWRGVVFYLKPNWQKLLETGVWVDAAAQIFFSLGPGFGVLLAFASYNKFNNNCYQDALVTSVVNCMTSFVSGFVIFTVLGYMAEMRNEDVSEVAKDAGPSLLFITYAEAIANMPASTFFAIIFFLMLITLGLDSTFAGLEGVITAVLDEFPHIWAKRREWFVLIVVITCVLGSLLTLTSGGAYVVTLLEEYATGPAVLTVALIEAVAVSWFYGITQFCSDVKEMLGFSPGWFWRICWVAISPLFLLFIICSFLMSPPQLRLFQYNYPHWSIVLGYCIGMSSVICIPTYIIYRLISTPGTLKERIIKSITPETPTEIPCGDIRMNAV
Substrate in series [3]: ON(O)CCc1ccccc1
Nature of the series: [3H]DA uptake inhibition in intact COS7 cells, hDAT WT. It is filed as cell-based, human. To be noted: other: [3H]DA uptake, pH 7.4, 37.0 °C.

Sequence of NET (Q9WTR4 entry or part of it): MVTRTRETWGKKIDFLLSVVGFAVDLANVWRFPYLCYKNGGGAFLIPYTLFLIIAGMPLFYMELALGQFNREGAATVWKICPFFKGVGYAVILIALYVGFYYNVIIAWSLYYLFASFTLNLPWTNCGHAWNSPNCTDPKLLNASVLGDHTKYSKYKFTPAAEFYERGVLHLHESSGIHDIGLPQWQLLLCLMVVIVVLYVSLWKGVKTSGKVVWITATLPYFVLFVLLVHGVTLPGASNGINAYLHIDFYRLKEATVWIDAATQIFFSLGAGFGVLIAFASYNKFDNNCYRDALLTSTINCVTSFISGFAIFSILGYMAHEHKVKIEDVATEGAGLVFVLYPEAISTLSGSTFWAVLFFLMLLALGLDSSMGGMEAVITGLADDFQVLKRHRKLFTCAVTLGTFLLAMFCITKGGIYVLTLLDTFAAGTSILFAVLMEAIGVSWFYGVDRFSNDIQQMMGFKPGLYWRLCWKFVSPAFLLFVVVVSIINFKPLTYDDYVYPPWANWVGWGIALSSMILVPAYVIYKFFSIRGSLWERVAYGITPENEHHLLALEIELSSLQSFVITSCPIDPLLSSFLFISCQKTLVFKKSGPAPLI

As a reminder, the Ki is the dissociation constant of the complex between target and ligand, obtained from inhibition or displacement. `Fc1ccc(C(SCCNCCCc2ccccc2)c2ccc(F)cc2)cc1` [Compound 4g, N-(2-((bis(4-fluorophenyl)methyl)thio)ethyl)-3-phenylpropan-1-amine] registered a Ki at NET of 3850 nM. Besides, in series [1] (0.5 h), the “IV brain Conc. ng/g ± SD” value is 4776 (1324) ng/g and the “PO brain Conc. ng/g ± SD” value is on record as 369 (303) ng/g. Also, in series [1] (2 h), the “IV brain Conc. ng/g ± SD” value is listed as 14111 (8093) ng/g and the “PO brain Conc. ng/g ± SD” value is on record as 223 (90) ng/g.
Take `Cc1cc(=O)oc2cc(O)ccc12` [4 Methyl Umbelliferone, 4-methylumbelliferone]: the “Phase II, parent compound remaining” value in [2] (0 min) was 100%; in series [2] (60 min), 3.10%.
Consider `[O-][S+](CCNCCCc1ccccc1)C(c1ccc(Br)cc1)c1ccc(Br)cc1` (stereo not drawn) [Compound 5e, N-(2-((bis(4-bromophenyl)methyl)sulfinyl)ethyl)-3-phenylpropan-1-amine], for which, at DAT (DAT, SERT, NET binding, rat brain membranes), the “selectivity among the monoamine transporters (in words)” value was “SERT-selective”. At NET, this molecule showed a Ki of 7580 nM.
On to `CNC(=O)CSC(c1ccc(Cl)cc1)c1ccc(Cl)cc1` [Compound 2h, 2-((Bis(4-chlorophenyl)methyl)thio)-N-methylacetamide], for which the Ki at human DAT wild type is 3700 nM; on human SERT T497A mutant, 27000 nM; at human SERT wild type, 8300 nM; on human DAT A480T mutant, 2300 nM. Also, at human SERT T497A mutant (uptake inhibition, COS7 cells), the “affinity at SERT T497A compared to SERT WT” value is on record as “significantly decreased”. The “affinity at DAT A480T compared to DAT WT” value at human DAT A480T mutant is listed as “essentially the same”.
Consider `NCCSC(c1ccc(Cl)cc1)c1ccc(Cl)cc1` [Compound 4b, 2-((bis(4-chlorophenyl)methyl)thio)ethan-1-amine], for which the Ki at human DAT wild type is 1210 nM; at human SERT T497A mutant, 170 nM; on human SERT wild type, 270 nM; on human DAT A480T mutant, 1370 nM. Moreover, the “affinity at SERT T497A compared to SERT WT” value at human SERT T497A mutant is “remain unchanged”. In addition, the “affinity at DAT A480T compared to DAT WT” value on human DAT A480T mutant was “remain unchanged”.
For `NCCSC(c1ccc(Br)cc1)c1ccc(Br)cc1` [Compound 4c, 2-((bis(4-bromophenyl)methyl)thio)ethan-1-amine], on DAT, the “improvement in DAT affinity, halogen-substituted v. unsubstituted analog” value was 3 fold. Further, on SERT, the “increase in SERT affinity, halogen-substituted v. unsubstituted analog” value was found to be 9 fold.
For `CNC(=O)CSC(c1ccc(Br)cc1)c1ccc(Br)cc1` [Compound 2i, 2-((Bis(4-bromophenyl)methyl)thio)-N-methylacetamide], at DAT, the “improvement in DAT affinity, halogen-substituted v. unsubstituted analog” value stood at 6 fold. Moreover, the Ki on NET worked out at 11200 nM. For the same molecule, at SERT, the “increase in SERT affinity, halogen-substituted v. unsubstituted analog” value is reported as over 50 fold.
For `NCCSC(c1ccccc1)c1ccccc1` [Compound 4a, 2-(benzhydrylthio)ethan-1-amine], the Ki on NET was determined as 982 ± 43.3 nM; on human DAT wild type, 390 nM; on human SERT T497A mutant, 630 nM; on human SERT wild type it was 690 nM; on human DAT A480T mutant, 720 nM. For the same molecule, the “affinity at SERT T497A compared to SERT WT” value on human SERT T497A mutant (uptake inhibition, COS7 cells) is on record as “remain unchanged”. The “affinity at DAT A480T compared to DAT WT” value at human DAT A480T mutant is “remain unchanged”.
As a reminder, the Km is the concentration of substrate that gives half-maximal velocity. Take `NCCc1c[nH]c2ccc(O)cc12` [Compound 5-HT, 5-hydroxytryptamine, reference compound]: the Km on human SERT T497A mutant (read-out: hSERT T497A KM) is 1.09 µM; on human SERT wild type (read-out: hSERT WT KM), 0.52 µM.

B1: human DAT wild type (Homo sapiens) (protein)
chain: MSKSKCSVGLMSSVVAPAKEPNAVGPKEVELILVKEQNGVQLTSSTLTNPRQSPVEAQDRETWGKKIDFLLSVIGFAVDLANVWRFPYLCYKNGGGAFLVPYLLFMVIAGMPLFYMELALGQFNREGAAGVWKICPILKGVGFTVILISLYVGFFYNVIIAWALHYLFSSFTTELPWIHCNNSWNSPNCSDAHPGDSSGDSSGLNDTFGTTPAAEYFERGVLHLHQSHGIDDLGPPRWQLTACLVLVIVLLYFSLWKGVKTSGKVVWITATMPYVVLTALLLRGVTLPGAIDGIRAYLSVDFYRLCEASVWIDAATQVCFSLGVGFGVLIAFSSYNKFTNNCYRDAIVTTSINSLTSFSSGFVVFSFLGYMAQKHSVPIGDVAKDGPGLIFIIYPEAIATLPLSSAWAVVFFIMLLTLGIDSAMGGMESVITGLIDEFQLLHRHRELFTLFIVLATFLLSLFCVTNGGIYVFTLLDHFAAGTSILFGVLIEAIGVAWFYGVGQFSDDIQQMTGQRPSLYWRLCWKLVSPCFLLFVVVVSIVTFRPPHYGAYIFPDWANALGWVIATSSMAMVPIYAAYKFCSLPGSFREKLAYAIAPEKDRELVDRGEVRQFTLRHWLKV
For the molecule B1, the Km in [3] is 1,160 nM.

These data come from patent US10913711B2, “Potent and selective inhibitors of monoamine transporters; method of making; and use thereof” (priority 2013, dated 2021).
